For one experiment, the target named is Cathepsin D (Homo sapiens, UniProt P07339). Briefly: Inhibition of human liver cathepsin D using Mca-Gly-Lys-Pro-Ile-Leu-Phe-Phe-Arg-Leu-Lys-(Dnp)-D-Arg-NH2 as substrate preincubated for 15 mins followed by substrate addition measured every 5 mins for 120 mins by fluorescence analysis.
The next experiment deals with T1, Cathepsin E (Homo sapiens, UniProt P14091).
T1 sequence (P14091 whole entry): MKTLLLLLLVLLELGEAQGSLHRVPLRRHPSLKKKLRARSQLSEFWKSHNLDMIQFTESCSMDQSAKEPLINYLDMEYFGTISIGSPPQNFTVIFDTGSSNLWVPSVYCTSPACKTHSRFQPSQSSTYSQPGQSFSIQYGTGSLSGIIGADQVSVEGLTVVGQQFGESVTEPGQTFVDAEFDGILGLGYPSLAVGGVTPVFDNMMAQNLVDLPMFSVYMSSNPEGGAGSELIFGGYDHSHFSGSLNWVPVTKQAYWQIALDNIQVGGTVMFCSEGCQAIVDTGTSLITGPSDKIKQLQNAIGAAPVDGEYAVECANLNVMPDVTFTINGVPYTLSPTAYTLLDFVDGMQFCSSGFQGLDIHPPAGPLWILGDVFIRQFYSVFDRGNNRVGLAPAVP
Nature of the experiment: Inhibition of human recombinant cathepsin E using Mca-Gly-Lys-Pro-Ile-Leu-Phe-Phe-Arg-Leu-Lys-(Dnp)-D-Arg-NH2 as substrate preincubated for 15 mins followed by substrate addition measured every 5 mins for 120 mins by fluorescence analysis.

The species entered for experiment [1] is Homo sapiens. Briefly: Selectivity ratio of IC50 for human liver cathepsin D to IC50 for human recombinant cathepsin E.
The target in a further experiment is Beta-secretase 1 (Homo sapiens, UniProt P56817). Briefly: Inhibition of BACE1 (unknown origin) using peptide substrate by time-course measurement-based fluorescence analysis.
The species named for experiment [2] is Homo sapiens. Nature of the experiment: Selectivity ratio of IC50 for BACE1 (unknown origin) to IC50 for human liver cathepsin D.
For experiment [3], the species on record is Homo sapiens. Nature of the experiment: Selectivity ratio of IC50 for BACE1 (unknown origin) to IC50 for human recombinant cathepsin E.

Starred links: 1 amine or outer side, 2 acyl side, 3 side chain; linkers in the order of their positions; H or OH if unused. Non-standard residues stand in square brackets, D forms with d. Residues, ends and D or L forms follow the SMILES beside them. Ahppa(3S,4S) = O=C(C[C@H](O)[C@H](Cc1ccccc1)N[*:1])[*:2]; dNMeF = CN[C@H](Cc1ccccc1)C(=O)O; NMeQ = CN[C@@H](CCC(N)=O)C(=O)O; Lac = C[C@H](O)C(=O)O

Cathepsin D, sequence (P07339 65-162 limits assumed): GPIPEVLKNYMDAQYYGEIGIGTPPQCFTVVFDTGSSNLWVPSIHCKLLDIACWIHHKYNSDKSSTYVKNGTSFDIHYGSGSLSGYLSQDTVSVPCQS
Cathepsin D, sequence (P07339 169-412 limits assumed): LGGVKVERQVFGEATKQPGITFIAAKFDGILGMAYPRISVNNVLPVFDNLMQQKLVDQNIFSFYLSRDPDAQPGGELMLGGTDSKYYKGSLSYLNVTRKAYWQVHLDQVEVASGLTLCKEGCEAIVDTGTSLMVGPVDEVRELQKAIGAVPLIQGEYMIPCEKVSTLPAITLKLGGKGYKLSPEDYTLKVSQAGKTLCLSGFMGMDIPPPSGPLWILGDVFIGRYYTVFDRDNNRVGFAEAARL
Beta-secretase 1, sequence (P56817 whole entry): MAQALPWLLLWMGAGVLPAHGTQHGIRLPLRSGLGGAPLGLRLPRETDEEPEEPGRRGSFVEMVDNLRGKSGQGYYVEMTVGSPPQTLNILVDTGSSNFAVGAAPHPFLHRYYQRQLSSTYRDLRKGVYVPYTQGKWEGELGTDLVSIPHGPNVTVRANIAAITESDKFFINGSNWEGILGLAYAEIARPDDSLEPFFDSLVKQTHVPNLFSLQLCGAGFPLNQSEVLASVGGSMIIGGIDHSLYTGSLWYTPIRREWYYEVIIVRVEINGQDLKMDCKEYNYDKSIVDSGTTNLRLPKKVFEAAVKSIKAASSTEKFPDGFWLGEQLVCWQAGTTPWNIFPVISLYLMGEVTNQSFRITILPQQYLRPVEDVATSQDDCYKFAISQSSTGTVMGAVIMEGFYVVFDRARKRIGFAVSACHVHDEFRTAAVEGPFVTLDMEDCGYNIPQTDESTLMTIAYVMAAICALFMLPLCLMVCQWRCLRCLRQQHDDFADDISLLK

As a reminder, the IC50 is the concentration that inhibits the measured activity by half. With `CC[C@H](C)[C@H](NC(=O)C[C@H](O)[C@H](Cc1ccccc1)NC(=O)[C@H](CCC(N)=O)N(C)C(=O)[C@@H](NC(=O)[C@H](C)O)[C@@H](C)CC)C(=O)NCC(=O)N(C)[C@H](Cc1ccccc1)C(=O)N1CCC[C@H]1C(=O)OC` (H-[Lac]I[NMeQ][Ahppa(3S,4S)]IG[dNMeF]P-OMe), the figures for the concentration for half-maximal inhibition (IC50) against Cathepsin D, on Cathepsin E and at Beta-secretase 1 were 57 nM, 23 nM and 690 nM, respectively. For the same compound, the Ratio IC50 in the experiment filed under Homo sapiens [1] was 2.4; in the experiment listed under Homo sapiens [2] it was 12; in the experiment listed under Homo sapiens [3], 30.
